According to article PMC11975549, “Development of Potent Type V MAPK Inhibitors: Design, Synthesis, and Biological Evaluation of Benzothiazole Derivatives Targeting p38α MAPK in Breast Cancer Cells” (Archiv Der Pharmazie, 2025):

What was measured:
[1] = tested on: MDA‐MB‐231 cells; assay: MTT antiproliferative assay, MDA-MB-231; type: cell-based, human; conditions: for IC50: MTT, 24 h incubation; for Selectivity MDA‐MB‐231: Selectivity index = L929 IC50 / MDA‐MB‐231 IC50 (24 h)
Method: (§1) Cell culture experiments were performed to assess the antiproliferative efficacy of the synthesized benzothiazole compounds on the MCF7 and MDA‐MB‐231 cell lines. The anticancer activity of the compounds were compared with the L929 healthy cell line as a control. Doxorubicin and cisplatin, the anticancer agents, were employed as positive controls.
(§2) Human epithelial breast adenocarcinoma (MDA‐MB‐231) (ATCC® HTB‐26™), human epithelial breast adenocarcinoma (MCF7) (ATCC® HTB‐22™), and healthy mouse fibroblast (L929) (ATCC® CRL‐10317™) cells were obtained commercially from ATCC.
(§3) MDA‐MB‐231, MCF7, and L929 cells were seeded in 25 cm² flasks. DMEM medium containing 10% FBS, 1% Penicillin‐Streptomycin, L‐Glutamine, and NaHCO₃ was used as the cell culture medium. The cells were incubated and propagated at 37°C in an environment containing 5% CO₂ and 95% humidity. When the cells reached 80%–90% confluency, they were passaged to different media. During passaging, DMEM was first withdrawn, and the cells were washed with PBS to remove FBS from the medium. Then, Trypsin‐EDTA solution was added to the flask to detach the cells, and the flask was kept in a CO₂ incubator for approximately 1 min. To stop the activity of Trypsin‐EDTA medium containing FBS was added to the flask. The cells were collected into a Falcon tube and centrifuged at 800 rpm for 5 min at room temperature. The supernatant was discarded, and the cell pellet was resuspended in the medium and seeded on cell culture plates according to the experimental protocol.
(§4) A total of 2 mg of each compound was dissolved in an appropriate amount of dimethyl sulfoxide (DMSO) to prepare 10 mM stock solutions. These stock solutions were then diluted to create 100 μM intermediate stocks and stored at −80°C. Commercially purchased cisplatin and doxorubicin HCl (Sigma, St. Louis, MO) were dissolved in DMSO following the manufacturer's protocol to create 20 mM stock solutions. These standard drug molecules were diluted from the stock solution, divided into 100 μM aliquots, and stored at –80°C until use.
(§5) MTT analysis was performed to evaluate the in vitro cytotoxicity of the synthesized compounds against different cancer cell lines. Cells used in the cytotoxicity experiments were cultured in DMEM medium supplemented with 10% FBS. Cells suspended in the medium (2 × 10⁴ cells/mL) were seeded into 96‐well culture plates and incubated at 37°C in a 5% CO₂ incubator. After 12 h, compounds were added at different doses (2 µL) to cells (2 × 10⁴) in the 96‐well plates and incubated at 37°C for 24 h.
(§6) The incubated cells were then treated with 20 µL of MTT solution and incubated at 37°C for 4 h. The supernatant was carefully removed from each well, and 100 µL of DMSO was added to each well to dissolve the formazan crystals formed by the cellular reduction of MTT. The absorbance was measured at 570 nm using an ELISA reader. […] At the end of the experiment, the device calculated the IC50 value for each well, and the average values were recorded. Each experiment was performed in at least three replicates.

[2] = tested on: L929 cells; assay: MTT cytotoxicity assay, L929 healthy cells; type: cell-based; conditions: healthy mouse fibroblast
Method: as §1, §2, §3, §4, §5, §6

[3] = tested on: MCF7 cells; assay: MTT antiproliferative assay, MCF7; type: cell-based, human; conditions: for IC50: MTT, 24 h incubation; for Selectivity MCF7: Selectivity index = L929 IC50 / MCF7 IC50 (24 h)
Method: as §1, §2, §3, §4, §5, §6

[4] = tested on: p38 MAPKα; assay: p38 MAPK alpha ELISA, total level in treated MCF7 cells normalised to total protein (BCA); type: cell-based, human; conditions: MCF7 cells exposed to compound
Text: To account for variations in protein quantities among the cells. The total protein concentrations in cells subjected to the drugs were quantified. The p38 MAPKα levels were adjusted by dividing by the protein levels, yielding results represented as ng/μg protein (Table 3).
A bicinchoninic acid (BCA) protein assay kit (catalog no. 23227) was obtained from Thermo‐Fisher Scientific (IL, USA) and used to detect total protein by the BCA assay. In this assay, the reaction between BCA, Cu²⁺ ions, and Cu⁺ ions form a purple complex in alkaline conditions. The absorbance of this complex was measured at 562 nm, and the results were expressed in mg/mL.
The p38 MAPK alpha ELISA Kit (ab221012; Abcam, Cambridge, MA) was used to measure the levels of […] in cell lysates according to the manufacturer's instructions. The SimpleStep Enzyme‐Linked Immunosorbent Assay (ELISA) kit was designed to assess total p38 MAPKα protein semi‐quantitatively. The SimpleStep ELISA uses a reporter‐conjugated detection antibody, and an affinity‐tag labeled capture antibody to immunocapture the sample analyte in solution. An anti‐tag antibody coating the well immobilizes the entire complex (capture antibody, analyte, and detection antibody).
Samples or controls were added to the wells, followed by the Antibody Cocktail to complete the test. After incubation, the wells were washed to remove unbound material. […] The levels of MAPK were normalized to total protein content.

Row | IC50 [1] [µM] | IC50 [3] [µM] | IC50 ([1]; Homo sapiens, MDA-MB-231) [µM] | IC50 ([3]; Homo sapiens, MCF7) [µM] | Compound | Selectivity MDA‐MB‐231 [1] | IC50 ([2]; 24 h incubation) [µM] | Selectivity MCF7 [3] | Total p38α MAPK levels [4] [ng/μg protein] | IC50 ([2]; L929, 24 h incubation) [µM]
1 |  |  | 15.8 ± 0.75 | 11 ± 0.27 | COc1ccc(C(=O)Nc2nc3ccccc3s2)cc1 [Compound 1, N‐(Benzo[d]thiazol‐2‐yl)‐4‐methoxybenzamide] | 1.549 |  | 2.227 | 7.367 ± 1.291 | 24.5 ± 0.56
2 |  |  | 17 ± 0.67 | 11.2 ± 0.49 | O=C(Nc1nc2ccccc2s1)c1ccc(F)cc1 [Compound 2, N‐(Benzo[d]thiazol‐2‐yl)‐4‐fluorobenzamide] | 1.239 |  | 1.884 | 3.879 ± 0.868 | 21.02 ± 0.21
3 |  |  | 15 ± 0.57 | 16 ± 0.46 | O=C(Nc1nc2ccccc2s1)c1cccs1 [Compound 3, N‐(Benzo[d]thiazol‐2‐yl) thiophene‐2‐carboxamide] | 2.345 |  | 2.209 | 0.43 ± 0.005 | 35.2 ± 0.95
4 |  |  | 19.9 ± 0.36 | 11.08 ± 0.08 | O=C(Nc1nc2ccccc2s1)c1ccco1 [Compound 4, N‐(Benzo[d]thiazol‐2‐yl) furan‐2‐carboxamide] | 1.305 |  | 2.349 | 8.529 ± 0.9 | 26.03 ± 0.13
5 |  |  | 15.3 ± 0.32 | 12.9 ± 0.37 | O=C(Nc1nc2ccccc2s1)c1ccc(Br)cc1 [Compound 5, N‐(Benzo[d]thiazol‐2‐yl)‐4‐bromobenzamide] | 2.033 |  | 2.399 |  | 31 ± 0.66
6 | 10.9 ± 0.28 | 13.5 ± 0.37 |  |  | O=C(Nc1nc2ccccc2s1)c1ccc(C(F)(F)F)cc1 [Compound 6, N‐(Benzo[d]thiazol‐2‐yl)‐4‐(trifluoromethyl) benzamide] | 2.197 | 23.9 ± 0.32 | 1.772 |  | 
7 |  |  | 11.8 ± 0.57 | 12.4 ± 0.97 | O=C(Nc1nc2ccccc2s1)c1ccccc1 [Compound 7, N‐(Benzo[d]thiazol‐2‐yl) benzamide] | 2.284 |  | 2.171 |  | 26.9 ± 0.97
8 |  |  | 5.2 ± 0.19 | 4.69 ± 0.05 | Cc1ccc(C(=O)Nc2nc3ccccc3s2)cc1 [Compound 8, N‐(Benzo[d]thiazol‐2‐yl)‐4‐methylbenzamide] | 1.238 |  | 1.373 | 9.541 ± 0.099 | 6.44 ± 0.05
9 |  |  | 6.02 ± 0.18 | 3.49 ± 0.32 | O=C(Nc1nc2ccccc2s1)c1ccc(Cl)cc1 [Compound 9, N‐(Benzo[d]thiazol‐2‐yl)‐4‐chlorobenzamide] | 1.068 |  | 1.842 | 0.166 ± 0.015 | 6.43 ± 0.05
10 |  |  | 13.5 ± 0.54 | 5.64 ± 0.34 | O=C(NCc1nc2ccccc2s1)c1ccccc1 [Compound 10, N‐(Benzo[d]thiazol‐2‐ylmethyl) benzamide] | 3.019 |  | 7.238 | 0.535 ± 0.079 | 40.82 ± 0.12
11 |  |  | 10 ± 0.36 | 15.6 ± 0.65 | O=C(NCc1nc2ccccc2s1)c1ccc(Cl)cc1 [Compound 11, N‐(Benzo[d]thiazol‐2‐ylmethyl)‐4‐chlorobenzamide] | 3.583 |  | 2.304 |  | 35.87 ± 0.23
12 |  |  | 15 ± 0.26 | 21.1 ± 0.46 | O=C(NCc1nc2ccccc2s1)c1ccc(F)cc1 [Compound 12, N‐(Benzo[d]thiazol‐2‐ylmethyl)‐4‐fluorobenzamide] | 2.869 |  | 2.038 |  | 43 ± 0.56
13 | 10 ± 0.43 | 12.9 ± 0.86 |  |  | O=C(NCc1nc2ccccc2s1)c1ccc(C(F)(F)F)cc1 [Compound 13, N‐(Benzo[d]thiazol‐2‐ylmethyl)‐4‐(trifluoromethyl) benzamide] | 3.273 | 32.8 ± 0.43 | 2.534 |  | 
14 |  |  | 16 ± 0.68 | 10.6 ± 0.16 | O=C(NCc1nc2ccccc2s1)c1cccs1 [Compound 14, N‐(Benzo[d]thiazol‐2‐ylmethyl) thiophene‐2‐carboxamide] | 1.391 |  | 2.096 | 0.199 ± 0.011 | 22.2 ± 0.68
15 |  |  | 20.25 ± 0.19 | 14.1 ± 0.95 | O=C(NCc1nc2ccccc2s1)c1ccc(Br)cc1 [Compound 16, N‐(Benzo[d]thiazol‐2‐ylmethyl)‐4‐bromobenzamide] | 1.766 |  | 2.536 |  | 35.8 ± 0.46
16 | 16.07 ± 0.12 | 14.7 ± 0.15 |  |  | COc1ccc(OC)c(CC(=O)Nc2nc3ccccc3s2)c1 [Compound 20, N‐(Benzo[d]thiazol‐2‐yl)‐2‐(2,5‐dimethoxyphenyl) acetamide] | 5.464 | 87.8 ± 1.29 | 5.977 |  | 
17 | 12.9 ± 0.19 | 12.7 ± 0.18 |  |  | COc1ccc(CC(=O)Nc2nc3ccccc3s2)cc1 [Compound 24, N‐(Benzo[d]thiazol‐2‐yl)‐2‐(4‐methoxyphenyl) acetamide] | 6.306 | 81.5 ± 1.07 | 6.440 |  | 
18 | 14.4 ± 0.18 | 13.21 ± 0.03 |  |  | O=C(Cc1cccs1)Nc1nc2ccccc2s1 [Compound 25, N‐(Benzo[d]thiazol‐2‐yl)‐2‐(thiophen‐2‐yl) acetamide] | 9.360 | 135 ± 1.83 | 10.189 |  | 
19 | 15.8 ± 0.52 | 13.5 ± 0.35 |  |  | COc1cccc(CC(=O)NCc2nc3ccccc3s2)c1 [Compound 26, N‐(Benzo[d]thiazol‐2‐ylmethyl)‐2‐(3‐methoxyphenyl) acetamide] | 1.753 | 27.7 ± 0.78 | 2.047 |  | 
20 | 14.7 ± 0.63 | 12.3 ± 0.96 |  |  | O=C(Cc1ccc(Cl)cc1)NCc1nc2ccccc2s1 [Compound 27, N‐(Benzo[d]thiazol‐2‐ylmethyl)‐2‐(4‐chlorophenyl) acetamide] | 2.243 | 32.9 ± 0.35 | 2.666 |  | 
21 |  |  | 9.27 ± 0.21 | 5.8 ± 0.15 | COc1cccc2c1C(=O)c1c(O)c3c(c(O)c1C2=O)C[C@@](O)(C(=O)CO)C[C@@H]3O[C@H]1C[C@H](N)[C@H](O)[C@H](C)O1 [Doxorubicin, reference compound] | 2.584 |  | 4.131 |  | 24 ± 1.07

Row | Compound | IC50 [1] [µM] | IC50 [3] [µM] | IC50 ([1]; Homo sapiens, MDA-MB-231) [µM] | IC50 ([3]; Homo sapiens, MCF7) [µM] | Selectivity MDA‐MB‐231 [1] | IC50 ([2]; 24 h incubation) [µM] | Selectivity MCF7 [3] | Total p38α MAPK levels [4] [ng/μg protein] | IC50 ([2]; L929, 24 h incubation) [µM]
22 | N.N.[Cl][Pt][Cl] [Cisplatin, reference compound] | 30.1 ± 1.39 | 7.03 ± 0.04 |  |  | 1.195 | 36 ± 2.01 | 5.118 |  | 
